Data set [1] concerns Mycolicibacterium smegmatis. Nature of the data set: Growth inhibition of Mycobacterium smegmatis MC2 155 ATCC 700084 after 72 hrs by MTT assay. The format is organism-based. Background: Tetrazolium dyes change colour on reduction, which living cells bring about.
Data set [2] addresses T1, Multidrug efflux pump LfrA (Mycobacterium smegmatis (strain ATCC 700084 / mc(2)155)) (UniProt A0R5K5).
T1 sequence (whole entry): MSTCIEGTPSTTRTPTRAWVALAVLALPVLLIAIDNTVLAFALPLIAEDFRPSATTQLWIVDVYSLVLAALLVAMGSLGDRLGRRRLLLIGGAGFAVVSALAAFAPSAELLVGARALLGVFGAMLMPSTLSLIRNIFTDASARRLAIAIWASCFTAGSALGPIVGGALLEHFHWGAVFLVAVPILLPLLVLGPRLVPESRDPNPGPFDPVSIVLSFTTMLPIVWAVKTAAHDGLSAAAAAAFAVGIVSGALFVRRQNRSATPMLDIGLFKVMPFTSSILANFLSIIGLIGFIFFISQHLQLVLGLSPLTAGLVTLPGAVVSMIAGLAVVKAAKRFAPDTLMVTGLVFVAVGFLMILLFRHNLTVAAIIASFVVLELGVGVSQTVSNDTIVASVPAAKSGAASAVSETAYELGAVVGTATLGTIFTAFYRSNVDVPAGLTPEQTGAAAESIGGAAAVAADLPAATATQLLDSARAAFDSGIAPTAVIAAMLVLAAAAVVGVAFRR
In words: Inhibition of LfrA in Mycobacterium smegmatis MC2 155 ATCC 700084 assessed as decrease in EtBr MIC at 0.78 ug/ml after 72 hrs by MTT assay relative to control. Particulars: Mycolicibacterium smegmatis MC2 155.

Data set [3] addresses T1, Multidrug efflux pump LfrA (Mycobacterium smegmatis (strain ATCC 700084 / mc(2)155)). Nature of the data set: Inhibition of LfrA in Mycobacterium smegmatis MC2 155 ATCC 700084 assessed as decrease in norfloxacin MIC at 12.5 ug/ml after 72 hrs by MTT assay relative to control. Particulars: Mycolicibacterium smegmatis MC2 155.
Data set [4] shares this target. In words: Inhibition of LfrA in Mycobacterium smegmatis MC2 155 ATCC 700084 assessed as potentiation of norfloxacin-induced bactericidal activity at 100 ug/ml after 48 hrs. Particulars: Mycolicibacterium smegmatis MC2 155.
Data set [5] has the same target. Nature of the data set: Inhibition of LfrA in Mycobacterium smegmatis MC2 155 ATCC 700084 assessed as potentiation of norfloxacin-induced bactericidal activity at 12.5 ug/ml after 48 hrs. Particulars: Mycolicibacterium smegmatis MC2 155.
Data set [6] has as its system CC-1. In words: Cytotoxicity against rat CC1 cells assessed as decrease in cell survival at 200 ug/ml after 24 hrs by Alamar blue reduction assay relative to control. The format is cell-based. Particulars: cc-1, 24 h. A general note: Resazurin is reduced to fluorescent resorufin, in cell work by metabolically active cells.
A short description of data set [7]: Cytotoxicity against rat CC1 cells assessed as cell survival at 100 ug/ml after 24 hrs by Alamar blue reduction assay relative to control. Particulars: read-out: Survival. The format is cell-based, CC-1.
Data set [8] is described as follows: Cytotoxicity against rat CC1 cells assessed as cell survival at 50 ug/ml after 24 hrs by Alamar blue reduction assay relative to control. The format is cell-based, CC-1. Particulars: read-out: Survival.
For data set [9], the target named is T1, Multidrug efflux pump LfrA (Mycobacterium smegmatis (strain ATCC 700084 / mc(2)155)). In words: Inhibition of LfrA in Mycobacterium smegmatis MC2 155 ATCC 700084 assessed as increase in norfloxacin accumulation at 25 ug/ml measured every 5 mins for 35 mins by fluorometric analysis. Particulars: Mycolicibacterium smegmatis MC2 155.
Data set [10] shares this target. Nature of the data set: Inhibition of LfrA in Mycobacterium smegmatis MC2 155 ATCC 700084 assessed as decrease in EtBr MIC at 100 ug/ml after 72 hrs by MTT assay relative to control. Particulars: Mycolicibacterium smegmatis MC2 155.
Data set [11] shares this target. Nature of the data set: Inhibition of LfrA in Mycobacterium smegmatis MC2 155 ATCC 700084 assessed as decrease in norfloxacin MIC at 25 ug/ml after 72 hrs by MTT assay relative to control. Particulars: Mycolicibacterium smegmatis MC2 155.
For data set [12] the target is unchanged. In words: Inhibition of LfrA in Mycobacterium smegmatis MC2 155 ATCC 700084 assessed as potentiation of EtBr-induced bactericidal activity at 2 ug/ml after 24 hrs. Particulars: Mycolicibacterium smegmatis MC2 155.
For data set [13] the target is unchanged. In words: Inhibition of LfrA in Mycobacterium smegmatis MC2 155 ATCC 700084 assessed as potentiation of EtBr-induced bactericidal activity at 2 ug/ml after 48 hrs. Particulars: Mycolicibacterium smegmatis MC2 155.
Data set [14] shares this target. Nature of the data set: Inhibition of LfrA in Mycobacterium smegmatis MC2 155 ATCC 700084 assessed as increase in EtBr accumulation at 25 ug/ml measured every 5 mins for 35 mins by fluorometric analysis. Particulars: Mycolicibacterium smegmatis MC2 155.
Data set [15] has the same target. In words: Inhibition of LfrA in Mycobacterium smegmatis MC2 155 ATCC 700084 assessed as increase in EtBr accumulation at 50 ug/ml measured every 5 mins for 35 mins by fluorometric analysis. Particulars: Mycolicibacterium smegmatis MC2 155.

Structures are written as SMILES. Values after ≈ are worked out from the molar mass of the structure shown. Active and inactive are the calls of the source. The calls are words filed in the database; no cut-off is given here. Bounds are passed on as bounds.

As for `O=c1c2cccc(F)c2nc2ccccn12`, the MIC in [1] amounted to 200 µg/mL (≈ 934 µM). The fold change (FC) came out at 2 in data set [2] and 16 in [3]. Also, the fractional inhibitory concentration index (FICI) is 0.3 in data set [2] and 0.12 in data set [3]. The Activity (deltalog10CFU/ml) in data set [4] and in data set [5] was 4 throughout. Moreover, the figures for the Activity in data set [6] and in data set [9] were above 50% and 3000 FU, respectively. For the same compound, the viability at 24 h, 100 ug/ml in data set [7] came to 93%. Besides, the viability at 24 h, 50 ug/ml in data set [8] worked out at 96%.

Turning to `Cc1cccn2c(=O)c3cccc(Cl)c3nc12`, in data set [1], the MIC came out at 200 µg/mL (≈ 817 µM). Besides, the fold change (FC) worked out at 8 in [10] and 4 in data set [11]. In addition, the figures for the fractional inhibitory concentration index (FICI) in [10] and in data set [11] were 0.62 and 0.37, respectively. The figures for the Activity (deltalog10CFU/ml) in data set [12] and in data set [13] were 7 and above 3, respectively. Besides, the Activity in data set [6] is above 50%; in data set [15] it was 400 FU. Further, the viability at 24 h, 100 ug/ml in data set [7] came out at 42%. Further, the viability at 24 h, 50 ug/ml in data set [8] was 40%. The inhibition entry in data set [14] and in [9] was “Active” each time.

The values above are taken from ChEMBL document CHEMBL4152357, “Efflux pump inhibition by 11H-pyrido[2,1-b]quinazolin-11-one analogues in mycobacteria” (Bioorg Med Chem, 2018).
